# Assay results taken from patent US9645154B2, “Method for detecting cancer cell” (ARKRAY, Inc., priority 2010, dated 2017).
# Legend:
# Blood cells = assay: Labeled sugar incorporation, fluorescence microscopy image analysis (false-positive/negative rate); format: cell-based, human
# Source text: Blood was collected from a human subject using a vacuum blood collection tube (with EDTA•2K). Blood cells were separated using HetaSep (STEMCELL Technologies) in accordance with manufacturer's instructions.
# When performing the hemolyzing treatment, the blood cell fraction collected as described above was hemolyzed using ammonium chloride (STEMCELL Technologies) according to the manufacture's manuals.
# The number of the cells was counted for each cell line using a hemacytometer in accordance with the conventional method, and then 10^5 to 10^6 cells per sample (cell suspension) was aliquoted. Each of the sample was centrifuged to remove the supernatant. Subsequently, 2-NBDG (Wako Pure Chemical Industries, Ltd.; at the final concentration given in Table 3 or 4) dissolved in Dulbecco's PBS (−) was added thereto, and the cells were suspended well. After the reaction, Dulbecco's PBS (−) was added to the mixture, and the resultant was centrifuged to remove the supernatant. The cells were resuspended with Dulbecco's PBS (−) and centrifuged, and the supernatant was removed again. The steps of resuspending cells with Dulbecco's PBS (−), centrifuging and removing the supernatant were then repeated 2 to 3 times, thereby washing the cells thoroughly. The cells were resuspended with Dulbecco's PBS (−), the concentration thereof was adjusted, and then added dropwise to a 384-well plate. The plate was centrifuged to spin down the cells. The image was captured with a fluorescence microscope (Nikon Corp.) using B-2A filter combination (Nikon Corp.). The B-2A set covers the following wavelengths. EX (excitation wavelength): 475±15 nm, DM: 505 nm or longer, BA (fluorescence wavelength) 520 nm or longer.
# The acquired images were analyzed using an image analysis software NIS-ELEMENTS (trade name, Nikon Corp.) to evaluate the fluorescence intensity of the cell. […]
# [1] = tested on: human breast adenocarcinoma cells (MCF-7); assay: Aminolevulinic acid (with FeCl2 and ascorbic acid) labeling, fluorescence microscopy image analysis (positive rate); format: cell-based; settings: hemolyzed, 0.3 mM, 60 min, 37° C., threshold value 268
# Source text: (§1) The number of the cells was counted using a hemacytometer in accordance with the conventional method, and then 10^5 to 10^6 cells per sample (cell suspension) was aliquoted. The sample was centrifuged to remove the supernatant. Subsequently, aminolevulinic acid 5-AMINOLEVULINATE HYDROCHLORIDE (trade name, Cosmo Bio Co., Ltd., at the final concentration given in Table 7 or 8) dissolved in Dulbecco's PBS (+) and FeCl2 and ascorbic acid having the same concentration as that of aminolevulinic acid, respectively, were added thereto, and the cells were suspended well. The number of the cells was adjusted, and then the cells were added dropwise to a 384-well plate. The plate was centrifuged to spin down the cells. The image was captured with a fluorescence microscope (Nikon Corp.).
# (§2) The wavelengths for the fluorescence filter set: EX (excitation wavelength): 402±7.5, DM: 430 or longer, BA (fluorescence wavelength): 625±15.
# (§3) The acquired images were analyzed using an image analysis software NIS-ELEMENTS (trade name, Nikon Corp.) to evaluate the fluorescence intensity of the cell.
# (§4) In a manner similar to Example 4, each of human breast adenocarcinoma cells (Cell line name: MCF-7; DS Pharma Biomedical Co., Ltd.), human colon adenocarcinoma cells (Cell line name: SW620; DS Pharma Biomedical Co., Ltd.), human prostate cancer cells (Cell line name: PC3; DS Pharma Biomedical Co., Ltd.), human alveolar epithelial cancer cells (Cell line name: NCI-H358; DS Pharma Biomedical Co., Ltd.), human gastric cancer cells (Cell line name: SNU-1; ATCC) and human fibrosarcoma cells (Cell line name: HT1080; DS Pharma Biomedical Co., Ltd.) was detected with aminolevulinic acid.
# [2] = tested on: human alveolar epithelial cancer cells (NCI-H358); assay: as above; format: cell-based; settings: hemolyzed, 0.3 mM, 60 min, 37° C., threshold value 212
# Source text: as §1, §2, §3, §4
# [3] = tested on: human fibrosarcoma cells (HT1080); assay: as above; format: cell-based; settings: hemolyzed, 0.3 mM, 60 min, 37° C., threshold value 203
# Source text: as §1, §2, §3, §4
# [4] = tested on: human colon adenocarcinoma cells (SW620); assay: as above; format: cell-based; settings: hemolyzed, 0.3 mM, 60 min, 37° C., threshold value 207
# Source text: as §1, §2, §3, §4
# [5] = fresh blood, Mean luminance, hemolyzed, 10 mM, 5 min, 23° C.
# [6] = fresh blood, Total luminance, hemolyzed, 10 mM, 5 min, 23° C.
# [7] = hemolyzed, 10 mM, 5 min, 23° C.
# [8] = hemolyzed, 10 mM, 5 min, 23° C., threshold value 280 (Colon adenocarcinoma)
# [9] = hemolyzed, 10 mM, 5 min, 23° C., threshold value 330 (Breast adenocarcinoma)
# [10] = hemolyzed, 10 mM, 5 min, 23° C., threshold value 370 (Alveolar epithelial cancer)
# [11] = hemolyzed, 10 mM, 5 min, 23° C., threshold value 370 (Fibrosarcoma)
# [12] = hemolyzed, 10 mM, 5 min, 23° C., threshold value 490 (Gastric cancer)
# [13] = hemolyzed, 10 mM, 5 min, 23° C., threshold value 880 (Prostate cancer)
# [14] = hemolyzed, 0.1 mM, 37° C., 30 min, threshold value 380
# [15] = hemolyzed, 1 mM, 37° C., 30 min, threshold value 520
# [16] = hemolyzed, 10 mM, 37° C., 30 min, threshold value 1150
# [17] = hemolyzed, 4° C., 10 mM, 5 min, threshold value 640
# [18] = hemolyzed, 23° C., 10 mM, 5 min, threshold value 640
# [19] = hemolyzed, 37° C., 10 mM, 5 min, threshold value 750
# [20] = hemolyzed, 5 min, 10 mM, 37° C., threshold value 570
# [21] = hemolyzed, 30 min, 10 mM, 37° C., threshold value 880
# [22] = hemolyzed, 60 min, 10 mM, 37° C., threshold value 750
# [23] = not hemolyzed, 10 mM, 5 min, 23° C.
# [24] = single, Glucose conc.: 1 mM, Temp.: 37° C., Time: 30 min, threshold value 280 (Colon adenocarcinoma)
# [25] = single, Glucose conc.: 1 mM, Temp.: 37° C., Time: 30 min, threshold value 370 (Fibrosarcoma)
# [26] = single, Glucose conc.: 1 mM, Temp.: 37° C., Time: 30 min, threshold value 490 (Gastric cancer)
# [27] = without hemolyzing treatment, 0.1 mM, 37° C., 30 min, threshold value 280
# [28] = without hemolyzing treatment, 1 mM, 37° C., 30 min, threshold value 330
# [29] = without hemolyzing treatment, 10 mM, 37° C., 30 min, threshold value 450 (concentration series)
# [30] = without hemolyzing treatment, 4° C., 10 mM, 5 min, threshold value 310
# [31] = without hemolyzing treatment, 23° C., 10 mM, 5 min, threshold value 360
# [32] = without hemolyzing treatment, 37° C., 10 mM, 5 min, threshold value 390
# [33] = without hemolyzing treatment, 5 min, 10 mM, 37° C., threshold value 380
# [34] = without hemolyzing treatment, 30 min, 10 mM, 37° C., threshold value 450 (time series)
# [35] = without hemolyzing treatment, 60 min, 10 mM, 37° C., threshold value 500
structure (smiles),measurement,setting,value
"O=[N+]([O-])c1ccc(N[C@H]2C(O)O[C@H](CO)[C@@H](O)[C@@H]2O)c2nonc12 (stereo partly drawn) [2-NBDG, 2-[N-(7-nitrobenz-2-oxa-1,3-diazol-4-yl)amino]-2-deoxy-D-glucose]",Negative rate (Blood cells),Blood cells; [5],95.2%
same,Positive rate of cancer cells (Blood cell data),Blood cells; [5],4.8%
same,Negative rate (Blood cells),Blood cells; [6],91.0%
same,Positive rate of cancer cells (Blood cell data),Blood cells; [6],9.0%
same,Negative rate (Blood cells (fresh blood)),Blood cells; [7],95.2%
same,Positive rate (Blood cells (fresh blood)),Blood cells; [7],4.8%
same,Negative rate (Blood cells (fresh blood)),Blood cells; [8],96.6%
same,Positive rate (Blood cells (fresh blood)),Blood cells; [8],3.4%
same,Negative rate (Blood cells (fresh blood)),Blood cells; [9],94.2%
same,Positive rate (Blood cells (fresh blood)),Blood cells; [9],5.8%
same,Negative rate (Blood cells (fresh blood)),Blood cells; [10],98.3%
same,Positive rate (Blood cells (fresh blood)),Blood cells; [10],1.7%
same,Negative rate (Blood cells (fresh blood)),Blood cells; [11],95.2%
same,Positive rate (Blood cells (fresh blood)),Blood cells; [11],4.8%
same,Negative rate (Blood cells (fresh blood)),Blood cells; [12],100.0%
same,Positive rate (Blood cells (fresh blood)),Blood cells; [12],0.0%
same,Negative rate (Blood cells (fresh blood)),Blood cells; [13],100.0%
same,Positive rate (Blood cells (fresh blood)),Blood cells; [13],0.0%
same,Negative rate (Blood cells),Blood cells; [14],100.0%
same,Positive rate (Blood cells),Blood cells; [14],0.0%
same,Negative rate (Blood cells),Blood cells; [15],98.9%
same,Positive rate (Blood cells),Blood cells; [15],1.1%
same,Negative rate (Blood cells),Blood cells; [16],100.0%
same,Positive rate (Blood cells),Blood cells; [16],0.0%
same,Negative rate (Blood cells),Blood cells; [17],100.0%
same,Positive rate (Blood cells),Blood cells; [17],0.0%
same,Negative rate (Blood cells),Blood cells; [18],99.2%
same,Positive rate (Blood cells),Blood cells; [18],0.8%
same,Negative rate (Blood cells),Blood cells; [19],98.5%
same,Positive rate (Blood cells),Blood cells; [19],1.5%
same,Negative rate (Blood cells),Blood cells; [20],99.1%
same,Positive rate (Blood cells),Blood cells; [20],0.9%
same,Negative rate (Blood cells),Blood cells; [21],99.7%
same,Positive rate (Blood cells),Blood cells; [21],0.3%
same,Negative rate (Blood cells),Blood cells; [22],97.1%
same,Positive rate (Blood cells),Blood cells; [22],2.9%
same,Negative rate (Blood cells (fresh blood)),Blood cells; [23],97.9%
same,Positive rate (Blood cells (fresh blood)),Blood cells; [23],2.1%
same,Negative rate (Blood cells (fresh blood)),Blood cells; [24],96.6%
same,Positive rate (Blood cells (fresh blood)),Blood cells; [24],3.4%
same,Negative rate (Blood cells (fresh blood)),Blood cells; [25],95.2%
same,Positive rate (Blood cells (fresh blood)),Blood cells; [25],4.8%
same,Negative rate (Blood cells (fresh blood)),Blood cells; [26],100.0%
same,Positive rate (Blood cells (fresh blood)),Blood cells; [26],0.0%
same,Negative rate (Blood cells),Blood cells; [27],100.0%
same,Positive rate (Blood cells),Blood cells; [27],0.0%
same,Negative rate (Blood cells),Blood cells; [28],98.5%
same,Positive rate (Blood cells),Blood cells; [28],1.5%
same,Negative rate (Blood cells),Blood cells; [29],98.9%
same,Positive rate (Blood cells),Blood cells; [29],1.1%
same,Negative rate (Blood cells),Blood cells; [30],99.1%
same,Positive rate (Blood cells),Blood cells; [30],0.9%
same,Negative rate (Blood cells),Blood cells; [31],97.9%
same,Positive rate (Blood cells),Blood cells; [31],2.1%
same,Negative rate (Blood cells),Blood cells; [32],99.0%
same,Positive rate (Blood cells),Blood cells; [32],1.0%
same,Negative rate (Blood cells),Blood cells; [33],98.6%
same,Positive rate (Blood cells),Blood cells; [33],1.4%
same,Negative rate (Blood cells),Blood cells; [34],98.9%
same,Positive rate (Blood cells),Blood cells; [34],1.1%
same,Negative rate (Blood cells),Blood cells; [35],91.2%
same,Positive rate (Blood cells),Blood cells; [35],8.8%
"NCC(=O)CCC(=O)O [aminolevulinic acid, 5-amino-4-oxopentanoic acid]",Positive rate (Cancer cells),[1],86.7%
same,Positive rate (Cancer cells),[2],94.4%
same,Positive rate (Cancer cells),[3],94.6%
same,Positive rate (Cancer cells),[4],97.0%
